Tests used:
Hepatotoxicity [1] = test: Literature-mined compound from Fourches et al multi-species drug-induced liver injury (DILI) dataset, effect in humans; settings: human
Hepatotoxicity [2] = test: Literature-mined compound from Fourches et al multi-species drug-induced liver injury (DILI) dataset, effect in rodents; settings: rodentia
Hepatotoxicity [3] = test: Literature-mined compound from Fourches et al multi-species drug-induced liver injury (DILI) dataset, effect in non-rodents

Compound	Hepatotoxicity (Hepatotoxicity [1])	Hepatotoxicity (Hepatotoxicity [2])	Hepatotoxicity (Hepatotoxicity [3])	Hepatotoxicity (Hepatotoxicity [1]; Liver)	Hepatotoxicity (Hepatotoxicity [2]; Liver)	Hepatotoxicity (Hepatotoxicity [3]; Liver)
CC(=O)CCCCn1c(=O)c2c(ncn2C)n(C)c1=O [PENTOXIFYLLINE]	drug-induced liver injury reported	drug-induced liver injury reported	drug-induced liver injury reported	–	–	–
N[C@@H](CN(O)N=O)C(=O)O [ALANOSINE]	no drug-induced liver injury reported	drug-induced liver injury reported	no drug-induced liver injury reported	–	–	–
O=C(O)c1cccnc1Nc1cccc(C(F)(F)F)c1 [NIFLUMIC ACID]	no drug-induced liver injury reported	drug-induced liver injury reported	no drug-induced liver injury reported	–	–	–
Cc1ccc(=O)n(-c2ccccc2)c1 [PIRFENIDONE]	no drug-induced liver injury reported	drug-induced liver injury reported	drug-induced liver injury reported	–	–	–
CC(c1cc2ccccc2s1)N(O)C(N)=O (stereo not drawn) [ZILEUTON]	drug-induced liver injury reported	drug-induced liver injury reported	no drug-induced liver injury reported	–	–	–
C[C@]12C/C(=C/O)C(=O)C[C@@H]1CC[C@@H]1[C@@H]2CC[C@@]2(C)[C@H]1CC[C@]2(C)O [OXYMETHOLONE]	drug-induced liver injury reported	no drug-induced liver injury reported	no drug-induced liver injury reported	–	–	–
Nc1nc2c(c(=O)[nH]1)N(C=O)C(CNc1ccc(C(=O)N[C@@H](CCC(=O)O)C(=O)O)cc1)CN2 (stereo partly drawn) [LEUCOVORIN]	drug-induced liver injury reported	drug-induced liver injury reported	no drug-induced liver injury reported	–	–	–
CC1(C)O[C@@H]2[C@@H](CO[C@@]3(COS(N)(=O)=O)OC(C)(C)O[C@@H]23)O1 [TOPIRAMATE]	drug-induced liver injury reported	no drug-induced liver injury reported	no drug-induced liver injury reported	–	–	–
CN(c1nccc(=O)[nH]1)C1CCN(c2nc3ccccc3n2Cc2ccc(F)cc2)CC1 [MIZOLASTINE]	drug-induced liver injury reported	no drug-induced liver injury reported	no drug-induced liver injury reported	–	–	–
COc1cc2nc(N(C)CCCNC(=O)C3CCCO3)nc(N)c2cc1OC (stereo not drawn) [ALFUZOSIN]	drug-induced liver injury reported	no drug-induced liver injury reported	no drug-induced liver injury reported	–	–	–
CCC(=O)[O-].[Na+] [SODIUM PROPIONATE]	no drug-induced liver injury reported	drug-induced liver injury reported	no drug-induced liver injury reported	–	–	–
C#C[C@]1(O)C=C[C@H]2[C@@H]3CCC4=CC(=O)CC[C@@H]4[C@H]3CC[C@@]21CC [GESTODENE]	drug-induced liver injury reported	no drug-induced liver injury reported	no drug-induced liver injury reported	–	–	–
C[C@@H]1C[C@H]2[C@@H]3CCC4=CC(=O)C=C[C@]4(C)[C@@]3(F)[C@@H](O)C[C@]2(C)[C@@]1(O)C(=O)CO [DEXAMETHASONE]	drug-induced liver injury reported	drug-induced liver injury reported	drug-induced liver injury reported	–	–	–
CC1=C(/C=C/C(C)=C/C=C/C(C)=C/C(=O)Nc2ccc(O)cc2)C(C)(C)CCC1 [FENRETINIDE]	drug-induced liver injury reported	drug-induced liver injury reported	no drug-induced liver injury reported	–	–	–
CCCSc1ccc2nc(NC(=O)OC)[nH]c2c1 [ALBENDAZOLE]	drug-induced liver injury reported	no drug-induced liver injury reported	no drug-induced liver injury reported	–	–	–
COc1cccc2c1C(=O)c1c(O)c3c(c(O)c1C2=O)C[C@@](O)(C(=O)CO)C[C@@H]3O[C@H]1C[C@H](N)[C@H](O)[C@H](C)O1.Cl [DOXORUBICIN HYDROCHLORIDE]	drug-induced liver injury reported	no drug-induced liver injury reported	no drug-induced liver injury reported	–	–	–
CN(CC(=O)O)C(=N)N [CREATINE]	no drug-induced liver injury reported	drug-induced liver injury reported	no drug-induced liver injury reported	–	–	–
CCN1CCN(C(=O)N[C@@H](C(=O)N[C@@H]2C(=O)N3C(C(=O)O)=C(CSc4nnnn4C)CS[C@H]23)c2ccc(O)cc2)C(=O)C1=O [CEFOPERAZONE]	drug-induced liver injury reported	drug-induced liver injury reported	no drug-induced liver injury reported	–	–	–

Compound	Hepatotoxicity (Hepatotoxicity [1])	Hepatotoxicity (Hepatotoxicity [2])	Hepatotoxicity (Hepatotoxicity [3])	Hepatotoxicity (Hepatotoxicity [1]; Liver)	Hepatotoxicity (Hepatotoxicity [2]; Liver)	Hepatotoxicity (Hepatotoxicity [3]; Liver)
COc1cccc2c1C(=O)c1c(O)c3c(c(O)c1C2=O)C[C@@](O)(C(=O)CO)C[C@@H]3O[C@H]1C[C@H](N)[C@@H](O)[C@H](C)O1 [EPIRUBICIN]	no drug-induced liver injury reported	drug-induced liver injury reported	no drug-induced liver injury reported	–	–	–
CC[C@@]1(O)C(=O)OCc2c1cc1n(c2=O)Cc2cc3c([N+](=O)[O-])cccc3nc2-1 [RUBITECAN]	drug-induced liver injury reported	no drug-induced liver injury reported	no drug-induced liver injury reported	–	–	–
COc1cc2c(c(OC)c1OC)-c1ccc(OC)c(=O)cc1[C@@H](NC(C)=O)CC2 [COLCHICINE]	drug-induced liver injury reported	drug-induced liver injury reported	no drug-induced liver injury reported	–	–	–
Cc1ccccc1C(OCCN(C)C)c1ccccc1 (stereo not drawn) [ORPHENADRINE]	no drug-induced liver injury reported	drug-induced liver injury reported	no drug-induced liver injury reported	–	–	–
O=C1c2c(O)ccc(O)c2C(=O)c2c(NCCNCCO)ccc(NCCNCCO)c21 [MITOXANTRONE]	drug-induced liver injury reported	drug-induced liver injury reported	no drug-induced liver injury reported	–	–	–
CN1C[C@H](C(=O)N[C@]2(C)O[C@@]3(O)[C@@H]4CCCN4C(=O)[C@H](Cc4ccccc4)N3C2=O)C[C@@H]2c3cccc4[nH]cc(c34)C[C@H]21 [DIHYDROERGOTAMINE]	drug-induced liver injury reported	drug-induced liver injury reported	no drug-induced liver injury reported	–	–	–
CC(CN1c2ccccc2Sc2ccccc21)N(C)C (stereo not drawn) [PROMETHAZINE]	no drug-induced liver injury reported	drug-induced liver injury reported	drug-induced liver injury reported	–	–	–
Nc1c(CC(=O)O)cccc1C(=O)c1ccc(Br)cc1 [BROMFENAC]	drug-induced liver injury reported	no drug-induced liver injury reported	no drug-induced liver injury reported	–	–	–
C=CCC1(C(C)C#CCC)C(=O)N=C([O-])N(C)C1=O.[Na+] (stereo not drawn) [METHOHEXITAL SODIUM]	no drug-induced liver injury reported	drug-induced liver injury reported	no drug-induced liver injury reported	–	–	–
CN(C)CCC=C1c2ccccc2CCc2ccccc21 [AMITRIPTYLINE]	drug-induced liver injury reported	drug-induced liver injury reported	no drug-induced liver injury reported	–	–	–
CCO[C@@H](Cc1ccc(OCCN2c3ccccc3Oc3ccccc32)cc1)C(=O)O [RAGAGLITAZAR]	no drug-induced liver injury reported	drug-induced liver injury reported	no drug-induced liver injury reported	–	–	–
O=C(O)c1cn(C2CC2)c2cc(N3CCNCC3)c(F)cc2c1=O [CIPROFLOXACIN]	–	–	–	drug-induced liver injury reported	drug-induced liver injury reported	no drug-induced liver injury reported
CCCCCCCC/C=C\CCCCCCCC(=O)O [OLEIC ACID]	no drug-induced liver injury reported	drug-induced liver injury reported	no drug-induced liver injury reported	–	–	–
CC(C(=O)O)c1ccc2oc(-c3ccc(Cl)cc3)nc2c1 (stereo not drawn) [BENOXAPROFEN]	drug-induced liver injury reported	drug-induced liver injury reported	no drug-induced liver injury reported	–	–	–
CS(=O)(=O)O.C[C@H](N)C(=O)N[C@@H](C)C(=O)N[C@H]1[C@@H]2CN(c3nc4c(cc3F)c(=O)c(C(=O)O)cn4-c3ccc(F)cc3F)C[C@@H]21 [ALATROFLOXACIN MESYLATE]	drug-induced liver injury reported	no drug-induced liver injury reported	no drug-induced liver injury reported	–	–	–
FC(F)(F)C(F)(F)C(F)(F)C(F)(F)C(F)(F)C(F)(F)C(F)(F)C(F)(F)Br [PERFLUBRON]	drug-induced liver injury reported	no drug-induced liver injury reported	drug-induced liver injury reported	–	–	–
CO[C@]12C[C@@H](COC(=O)c3cncc(Br)c3)CN(C)[C@@H]1Cc1cn(C)c3cccc2c13 [NICERGOLINE]	no drug-induced liver injury reported	drug-induced liver injury reported	no drug-induced liver injury reported	–	–	–
CC1(C)S[C@@H]2[C@H](NC(=O)[C@H](N)c3ccc(O)cc3)C(=O)N2[C@H]1C(=O)O [AMOXICILLIN]	drug-induced liver injury reported	no drug-induced liver injury reported	no drug-induced liver injury reported	–	–	–

— ChEMBL document CHEMBL1697731, “Cheminformatics analysis of assertions mined from literature that describe drug-induced liver injury in different species” (Chem Res Toxicol, 2010)
